# Legend:
# Format in all cases: cell-based
# [1] = test system: HT-29 (monolayer culture of a human colon carcinoma); experiment: Cytotoxic activity screening, HT-29 cells; conditions: Homo sapiens, HT-29, 72 h, three days of incubation, Crystal Violet, approximate IC50
# Description: (§1) Cell Cultures. Cells were maintained in logarithmic phase of growth in Eagle's Minimum Essential Medium, with Earle's Balanced Salts, with 2.0 mM L-glutamine, with non-essential amino acids, without sodium bicarbonate (EMEM/neaa); supplemented with 10% Fetal Calf Serum (FCS), 10^−2 M sodium bicarbonate and 0.1 g/l penicillin-G+streptomycin sulfate.
# (§2) A separate set of cultures without drug was seeded as control growth to ensure that cells remained in exponential phase of growth. All determinations were carried out in duplicate. After three days of incubation at 37° C., 10% CO2 in a 98% humid atmosphere, the wells were stained with 0.1% Crystal Violet. An approximately IC50 was determined by comparing the growth in wells with drug to the growth in wells control.
# [2] = test system: P-388 (suspension culture of a lymphoid neoplasm from DBA/2 mouse); experiment: Cytotoxic activity screening, P-388 cells; conditions: Mus musculus, P388, 72 h, three days of incubation, approximate IC50 vs control growth
# Description: as §1
# (§3) A simple screening procedure has been carried out to determine and compare the antitumour activity of these compounds, using an adapted form of the method described by Bergeron et al (1984). The tumour cell line employed have been P-388 (suspension culture of a lymphoid neoplasm from DBA/2 mouse), A-549 (monolayer culture of a human lung carcinoma), HT-29 (monolayer culture of a human colon carcinoma) and MEL-28 (monolayer culture of a human melanoma).
# P-388 cell were seeded into 16 mm wells at 1×10^4 cells per well in 1 ml aliquots of MEM 5FCS containing the indicated concentration of drug. A separate set of cultures without drug was seeded as control growth to ensure that cells remained in exponential phase of growth. All determinations were carried out in duplicate.
# [3] = test system: A-549 (monolayer culture of a human lung carcinoma); experiment: Cytotoxic activity screening, A-549 cells; conditions: Homo sapiens, A549, 72 h, three days of incubation, Crystal Violet, approximate IC50
# Description: as §1, §2
# [4] = test system: MEL-28 (monolayer culture of a human melanoma); experiment: Cytotoxic activity screening, MEL-28 cells; conditions: Homo sapiens, SK-MEL-28, 72 h, three days of incubation, Crystal Violet, approximate IC50
# Description: as §1, §3
# as §2, with “A-549, HT-29 and MEL-28 were seeded into 16 mm wells at 2×10^4 cells per well in 1 ml aliquots of MEM 10FCS containing the indicated concentration of drug. A separate” for “A separate”
# [5] = test system: DU-145; experiment: Cytotoxic activity screening, DU-145 cells; conditions: Homo sapiens, DU-145, DU-145 cells
# Description: [The source words this procedure for another cell line and reports this cell line under the same test.] as §1, §3
# Examples of biological activities of the compounds described in the present application are in Table IV (IC50 (ng/mL)) on the following pages.
SMILES,IC50 [1],IC50 [2],IC50 [3],IC50 [4],IC50 [5]
COc1c(C)cc2c(c1O)[C@@H]1C3[C@@H]4SC[C@H](NC(=O)C(C)NC(=O)/C=C/c5ccccc5)C(=O)OC[C@@H](c5c6c(c(C)c(OC(C)=O)c54)OCO6)N3[C@@H](O)[C@H](C2)N1C (stereo partly drawn) [Compound 4x],1 ng/mL,1 ng/mL,1 ng/mL,1 ng/mL,1 ng/mL
COc1c(C)cc2c(c1O)[C@@H]1C3[C@@H]4SC[C@H](OC(=O)/C=C/c5ccccc5)C(=O)OC[C@@H](c5c6c(c(C)c(OC(C)=O)c54)OCO6)N3[C@@H](C#N)[C@H](C2)N1C (stereo partly drawn) [Compound 17h],0.1 ng/mL,0.1 ng/mL,0.1 ng/mL,0.1 ng/mL,0.1 ng/mL
COc1c(C)cc2c(c1O)[C@@H]1C3[C@@H]4SC[C@H](NC(=O)/C=C/c5ccccc5)C(=O)OC[C@@H](c5c6c(c(C)c(OC(C)=O)c54)OCO6)N3[C@@H](C#N)[C@H](C2)N1C (stereo partly drawn) [Compound 3h],0.5 ng/mL,0.5 ng/mL,0.5 ng/mL,0.5 ng/mL,0.5 ng/mL
COc1c(C)cc2c(c1O)[C@@H]1C3[C@@H]4SC[C@H](NC(=O)C(NC(=O)C(C)NC(C)=O)C(C)C)C(=O)OC[C@@H](c5c6c(c(C)c(OC(C)=O)c54)OCO6)N3[C@@H](O)[C@H](C2)N1C (stereo partly drawn) [Compound 4t],10 ng/mL,100 ng/mL,100 ng/mL,10 ng/mL,10 ng/mL
COc1c(C)cc2c(c1O)[C@@H]1C3[C@@H]4SC[C@H](NC(=O)C(NC(=O)C(C)NC(C)=O)C(C)C)C(=O)OC[C@@H](c5c6c(c(C)c(OC(C)=O)c54)OCO6)N3[C@@H](C#N)[C@H](C2)N1C (stereo partly drawn) [Compound 3t],10 ng/mL,10 ng/mL,10 ng/mL,10 ng/mL,10 ng/mL
COc1c(C)cc2c(c1O)[C@@H]1C3[C@@H]4SC[C@@H](NC(C)=O)C(=O)OC[C@@H](c5c6c(c(C)c(OC(C)=O)c54)OCO6)N3[C@@H](O)[C@H](C2)N1C (stereo partly drawn) [Compound 4a],0.1 ng/mL,0.1 ng/mL,0.5 ng/mL,0.5 ng/mL,0.1 ng/mL
COc1c(C)cc2c(c1O)[C@@H]1C3[C@@H]4SC[C@H](NC(=O)C(F)(F)F)C(=O)OC[C@@H](c5c6c(c(C)c(OC(C)=O)c54)OCO6)N3[C@@H](C#N)[C@H](C2)N1C (stereo partly drawn) [Compound 3b],1 ng/mL,1 ng/mL,1 ng/mL,1 ng/mL,1 ng/mL
CCCN[C@H]1CS[C@@H]2c3c(OC(C)=O)c(C)c4c(c3[C@H](COC1=O)N1C2[C@H]2c3c(cc(C)c(OC)c3O)C[C@@H]([C@@H]1O)N2C)OCO4 (stereo partly drawn) [Compound 4o],1 ng/mL,–,1 ng/mL,–,–
COc1c(C)cc2c(c1O)[C@@H]1C3[C@@H]4SC[C@H](NC(=O)C(NC(=O)C(C)N)C(C)C)C(=O)OC[C@@H](c5c6c(c(C)c(OC(C)=O)c54)OCO6)N3[C@@H](C#N)[C@H](C2)N1C (stereo partly drawn) [Compound 3s],1 ng/mL,1 ng/mL,1 ng/mL,1 ng/mL,1 ng/mL
COc1c(C)cc2c(c1O)[C@@H]1C3[C@@H]4SC[C@H](NC(=O)c5ccccc5)C(=O)OC[C@@H](c5c6c(c(C)c(OC(C)=O)c54)OCO6)N3[C@@H](O)[C@H](C2)N1C (stereo partly drawn) [Compound 4g],0.5 ng/mL,0.1 ng/mL,0.5 ng/mL,0.5 ng/mL,0.5 ng/mL
CCCC(=O)N[C@H]1CS[C@@H]2c3c(OC(C)=O)c(C)c4c(c3[C@H](COC1=O)N1C2[C@H]2c3c(cc(C)c(OC)c3O)C[C@@H]([C@@H]1C#N)N2C)OCO4 (stereo partly drawn) [Compound 3c],0.1 ng/mL,0.1 ng/mL,0.1 ng/mL,0.1 ng/mL,0.1 ng/mL
COc1c(C)cc2c(c1O)[C@@H]1C3[C@@H]4SC[C@H](O)C(=O)OC[C@@H](c5c6c(c(C)c(OC(C)=O)c54)OCO6)N3[C@@H](C#N)[C@H](C2)N1C (stereo partly drawn) [Compound 15],5 ng/mL,5 ng/mL,5 ng/mL,5 ng/mL,5 ng/mL

# Source: patent US7919493B2, “Anititumoral ecteinascidin derivatives” (Pharma Mar, S.A., priority 2001, dated 2011)
